Results from EPA's ToxValDB 9.5 (doi:10.2903/j.efsa.2010.1769).
Values after ≈ are worked out from the molar mass of the structure shown.

Assays:
Folsomia candida = details: chronic/long-term; reproduction
Apis mellifera = details: acute, mortality
Canidae = details: chronic, duration: 1 years, oral, Dog Other
Danio rerio = details: acute; duration: 96 hours; mortality
Landoltia sp. = details: acute
Oncorhynchus mykiss = details: chronic/long-term; duration: 28 days
Aphidius rhopalosiphi = assay: LR50; higher = less toxic; details: not reported; mortality
Typhlodromus pyri = assay: LR50; higher = less toxic; details: not reported; mortality

SMILES	NOEC (Folsomia candida) [mg/kg]	NOEC (Tagia sp.; chronic/long-term, duration: 56 days) [mg/kg]	LD50 (Apis mellifera; dermal) [µg/piece]	LD50 (Apis mellifera; oral, unspecified) [µg/piece]	NOAEL (Canidae) [mg/kg-day]	LOAEL (Canidae; clinical signs) [mg/kg-day]	LC50 (Danio rerio) [µg/mL]	LC50 (Daphnia magna; acute, duration: 96 hours, mortality) [µg/mL]	NOEC (Daphnia magna; chronic/long-term, duration: 21 days) [mg/L]	NOEC (Landoltia sp.) [µg/L]	NOEC (Oncorhynchus mykiss) [mg/L]	LD50 (Rattus norvegicus; acute, oral, mortality) [mg/kg]	NOAEL (Rattus norvegicus; reproduction developmental, reproduction) [mg/kg-day]	NOEC (Tagia sp.; acute) [mg/kg]	LC50 (Tagia sp.; acute, mortality) [mg/kg]	LR50 (Aphidius rhopalosiphi) [g/ha]	LR50 (Typhlodromus pyri) [g/ha]
CCc1cccc(C)c1NC(=O)CS(=O)(=O)O [2-(2-ethyl-6-methylanilino)-2-oxoethane-1-sulfonic acid]	> 1000	3.5	–	–	–	–	–	–	–	–	–	–	–	–	–	–	–
CCc1cccc(C)c1N(COC(C)C)C(=O)C(=O)O	> 1000	–	–	–	–	–	–	–	–	–	–	–	–	–	–	–	–
CCc1cccc(C)c1N(COC(C)C)C(=O)CCl [Propisochlor]	–	–	> 100	> 111	5	5	0.93 (≈ 3.28 µM)	4.46 (≈ 15.7 µM)	0.93	21	0.18	1920	10	62.5	248	20300	1500
